Laboratory results as given in US5654296A, “Condensed heterocyclic compounds, their production and use” (priority 1994, dated 1997).
Where a name gives a salt, the structure may show the parent alone.

Target: T1, human GnRH receptors (Homo sapiens, UniProt P30968)
T1 construct: expressed in transfected cells; host or cells: CHO (Chinese hamster ovary) cells, membrane fraction
T1 sequence (P30968 1-328): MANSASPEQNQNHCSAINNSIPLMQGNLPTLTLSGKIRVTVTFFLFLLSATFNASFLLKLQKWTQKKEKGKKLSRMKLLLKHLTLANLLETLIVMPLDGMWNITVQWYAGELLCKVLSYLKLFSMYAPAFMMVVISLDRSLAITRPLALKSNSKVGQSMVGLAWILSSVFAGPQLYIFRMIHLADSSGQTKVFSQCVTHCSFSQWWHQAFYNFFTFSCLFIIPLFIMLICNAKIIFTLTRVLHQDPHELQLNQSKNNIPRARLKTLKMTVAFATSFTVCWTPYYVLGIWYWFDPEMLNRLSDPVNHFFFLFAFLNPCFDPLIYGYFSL
Assay: 125I-leuprolerin GnRH receptor binding inhibition test, human (CHO cell membrane fraction)
Conditions: human GnRH receptors expressed in CHO cells, 25° C., 60 minutes, read-out: Binding inhibitory activity (IC50 μM) Human
Experimental: Ten (10) μl of 3×10^4 M aqueous leuprolerin solution and 10 μl of 0.01 mg/ml lactoperoxidase were taken in a tube and 10 μl of Na^125 I solution (37 MBq) was added. After stirring, 10 μl of 0.001% H2 O2 was added and the reaction was conducted at room temperature for 20 minutes. Then, 700 μl of 0.05% TFA solution was added to the tube to terminate the reaction and the reaction mixture was purified by reverse-phase HPLC. The HPLC conditions are shown below. ^125 I-leuprolerin was eluted after a retention time of 26-27 minutes. (D) Preparation of a CHO (Chinese Hamster Ovarian) Cell Membrane Fraction Containing Human GnRH Receptors […] To the cell pellet was added 10 ml of cell homogenate buffer (10 mM NaHCO3, 5 mM EDTA, pH 7.5) and the mixture was homogenized using a Polytron homogenizer. The homogenate was centrifuged at 400×G for 15 minutes. The supernatant was taken in an ultracentrifuge tube and centrifuged at 100,000×G for 1 hour to provide a membrane fraction pellet. […] After filtration, the radioactivity of ^125 I-leuprolerin remaining on the filter was measured with a γ-counter. The expression (TB-SB)/(TB-NSB)×100 (where SB=radioactivity with the compound added, TB=maximum bound radioactivity, NSB=nonspecifically bound radioactivity) was calculated to find the binding inhibition rate of each test compound.

SMILES	IC50
COc1cc2c(cc1OC)CC1(CCCCN1CCCCC1(c3ccccc3)COCc3ccccc31)CC2 (centres unmarked) [Example I-52, 3,4-Dihydro-6,7-dimethoxy-1'-[4-(4-phenylisochroman-4-yl)butyl]spiro[naphthalene-2(1H),2'-piperidine] hydrochloride]	6 µM
COC(=O)c1cccc(CNCCCC2(c3ccccc3)COCc3ccccc32)c1 (stereo not drawn) [Example I-45, Methyl α-[3-(4-Phenylisochroman-4-yl)propylamino]-m-toluate hydrochloride]	6 µM
